These results are taken from patent publication US12653796B2, “Compounds for use (in particular RIPA-56) in the prevention and/or treatment of non-alcoholic fatty liver disease” (SORBONNE UNIVERSITE, priority 2019, dated 2026).

One experiment relates to L929 cells. Briefly: TNF-induced RIPK1-dependent cell death in L929 cells (MTT cell survival). Particulars: 20 μM, 2 h pre-treatment, TNF (50 ng/mL) 20 h. The experiment is classed as cell-based. As to the method: FIG. 1. RIPA-56 prevents RIPK1-dependent cell death in L929 cells upon caspase inhibition and TNF stimulation. L929 cells were treated with RIPA-56 (20 μM), Nec-1 (20 μM) or vehicle for 2 h, prior to incubation with or without TNF (50 ng/mL), and analyzed for (A) morphology and (B) cell survival using MTT assay, after 20 h incubation with or without TNF; (C) Western blot analyses at different time points of incubation with TNF. Results are shown as mean±SEM; n.s., not significant; ****p<0.0001. Data are representative of three independent experiments.
L929 cells (LGC Standards, Molsheim, France), were cultured in Dulbecco's modified Eagle's medium (DMEM) (ThermoFisher, Massachusetts, USA) supplemented with 10% fetal bovine serum (Eurobio, Courtaboeuf, France), penicillin (100 IU/ml), streptomycin (0.1 mg/ml), and L-glutamine (0.03%) (ThermoFisher). […]
Cell viability was determined by using 3-(4,5-dimethylthiazol-2-yl)-[…] (MTT) colorimetric assay (ThermoFisher), which measures cell metabolic activity. […] Once MTT crystals were developed and controlled under light microscopy, they were dissolved in DMSO and quantified by measuring absorbance at 540 nm.

Experiment [1] addresses T1, receptor-interacting protein kinase 1 (RIPK1) (Homo sapiens, UniProt Q13546).
T1 sequence (Q13546 1-671): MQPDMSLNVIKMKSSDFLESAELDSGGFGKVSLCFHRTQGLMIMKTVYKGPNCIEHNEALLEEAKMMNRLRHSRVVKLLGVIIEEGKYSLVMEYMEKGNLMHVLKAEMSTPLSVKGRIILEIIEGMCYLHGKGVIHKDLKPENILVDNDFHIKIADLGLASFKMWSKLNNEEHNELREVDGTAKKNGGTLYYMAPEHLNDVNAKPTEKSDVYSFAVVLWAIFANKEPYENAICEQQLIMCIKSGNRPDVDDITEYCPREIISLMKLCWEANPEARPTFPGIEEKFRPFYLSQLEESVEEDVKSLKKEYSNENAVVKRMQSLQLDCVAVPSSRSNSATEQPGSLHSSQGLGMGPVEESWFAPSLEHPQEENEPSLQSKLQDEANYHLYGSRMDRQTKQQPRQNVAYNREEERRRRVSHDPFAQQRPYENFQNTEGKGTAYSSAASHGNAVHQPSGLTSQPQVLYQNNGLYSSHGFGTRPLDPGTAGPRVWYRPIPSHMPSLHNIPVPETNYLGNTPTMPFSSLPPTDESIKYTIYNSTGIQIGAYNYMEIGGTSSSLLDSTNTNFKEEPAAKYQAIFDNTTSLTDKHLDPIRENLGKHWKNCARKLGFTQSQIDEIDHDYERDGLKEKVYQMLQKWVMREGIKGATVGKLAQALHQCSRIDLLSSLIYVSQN
As to conditions: Ren et al., J Med Chem 2017; cited from earlier work.

Take `CCC(C)(C)C(=O)N(O)Cc1ccccc1` [RIPA-56, N-Benzyl-N-hydroxy-2,2-dimethylbutanamide]: the RIPK1-dependent cell death entry in the experiment with L929 cells is reported as “prevents”. Further, the RIPK1 inhibitor profile entry in experiment [1] is “selective and metabolically stable inhibitor”.
